Laboratory results: patent US12023331B2 (priority 2018, dated 2024)

Key:
5-HT2 receptor = test: DOI-induced head twitch model in mice; assay type: in vivo; conditions: compound orally 0.5 hr before DOI
[1] = test system: NMDA-induced currents in rat mPFC; test: NMDA-induced currents in rat mPFC slices, whole-cell patch clamp; assay type: cell-based
[2] = test system: AMPA-induced currents in rat mPFC; test: AMPA-induced currents in rat mPFC slices, whole-cell patch clamp; assay type: cell-based
Method: Combined administration of the antipsychotic, olanzapine, and the SSRI, fluoxetine, similarly induces rapid antidepressant activity in humans and animals (Tohen et al., 2010); likewise, combined application of olanzapine and fluoxetine is required to induce AMPA receptor currents in vitro.
In contrast, the antipsychotic drug olanzapine, is found to enhance AMPA-induced currents only in the presence of the SSRI fluoxetine. 3 nM olanzapine alone results in about 100% of the AMPA-induced current of the control, while 100 nM fluoxetine results in about 90% of the AMPA-induced current of the control. However, the combination of 3 nM olanzapine and 100 nM fluoxetine is found to synergistically result in almost 150% of the AMPA-induced current of control. When SCH 23390 (1 μM) is combined with the olanzapine and fluoxetine, however, the AMPA-induced current returns to approximately 100% of the control level.

mTORC1 signaling pathway = test: Phosphorylation of mTOR pathway proteins in rat PFC; assay type: in vivo; conditions: for mTOR phosphorylation (Serine 2448) / increase in phosphorylation of AKT at thr308 / p70s6K phosphorylation (Threonine 389): rat PFC, 30 mg/kg ketamine or 3 mg/kg Formula A i.p.; for increase in phosphorylation of AKT at thr308: both 1 hour and 24 hours post-administration; for p70s6K phosphorylation (Threonine 389): over 24 hours
[3] = Clinical studies in patients with acute exacerbated schizophrenia; assay type: in vivo, human; conditions: 60 mg P.O. once daily up to 28 days
Description: Social avoidance can be a critical and debilitating symptom in patients suffering from anxiety disorders, especially social anxiety disorder, as well as in patients suffering from traumatic anxiety disorders. Social avoidance is often one of the key determinants of whether a person with a severe anxiety disorder is capable of maintaining familial relationships or employment relationships. […] Negative symptoms of schizophrenia can be divided into two categories: emotional experience (e.g., emotional withdrawal, passive social withdrawal, active social avoidance) and emotional expression (e.g., blunted effect, poor rapport, lack of spontaneity, and motor retardation). […] These are the symptoms that are most highly correlated with interpersonal functioning.

Mu opiate receptor = Mu opiate receptor (Homo sapiens (Human), UniProt P35372); test: biochemical
[4] = 40-minute infusion, total dose 0.5 mg/kg; after 24 hours; cited from earlier work

Q: For `O=C1CN2c3c(cccc3[C@@H]3CN(CCCOc4ccc(F)cc4)CC[C@@H]32)N1` [Example 1, (6bR,10aS)-8-(3-(4-fluorophenoxy)propyl)-6b,7,8,9,10,10a-hexahydro-1H-pyrido[3′,4′:4,5]pyrrolo[1,2,3-de]quinoxalin-2(3H)-one], which “EC50 for reducing DOI-induced head twitches” value (5-HT2 receptor) is on record?
A: 0.44 mg/kg, p.o.

Q: Which “NMDA-induced currents compared to control” value ([1]; 30 nM) does the source give for `CN1CCN2c3c(cccc31)[C@@H]1CN(CCCC(=O)c3ccc(F)cc3)CC[C@@H]12` [Formula A, lumateperone] here?
A: ~150%

Q: What about the “NMDA-induced currents compared to control” value ([1]; Formula A 30 nM combined with SCH 23390 (1 μM)) of the same compound?
A: about 90 % of control

Q: And the “AMPA-induced currents compared to control” value ([2]; Formula A 30 nM, alone and with SCH 23390 (1 μM), rat mPFC)?
A: Substantially the same results

Q: What about the “activation of the mTORC1 signaling pathway in mPFC” value (mTORC1 signaling pathway; adult rats, 1 to 8 mg/kg i.p., 60 min, 90 min or 24 hours) of the same compound?
A: rapidly activates the mTORC1 signaling pathway

Q: What about the “mTOR phosphorylation (Serine 2448)” value (mTORC1 signaling pathway) of the same compound?
A: Neither ketamine nor the Compound of Formula A results in a change

Q: And the “increase in phosphorylation of AKT at thr308” value (mTORC1 signaling pathway)?
A: ~50%

Q: And the “p70s6K phosphorylation (Threonine 389)” value (mTORC1 signaling pathway)?
A: progressively increases

Q: What about the “symptoms of emotional experience compared to placebo” value [3] of the same compound?
A: significant and unexpected improvement

Q: And the Ki (Mu opiate receptor)?
A: > 10 µM

Q: With `Cc1cc2c(s1)Nc1ccccc1N=C2N1CCN(C)CC1` [olanzapine] as the compound, how does the “AMPA-induced current of the control” value ([2]; 3 nM olanzapine alone) read?
A: about 100%

Q: With `CNCCC(Oc1ccc(C(F)(F)F)cc1)c1ccccc1` (stereo not shown) [fluoxetine] as the compound, how does the “AMPA-induced current of the control” value ([2]; 100 nM fluoxetine) read?
A: about 90%

Q: What does the source list for `CNC1(c2ccccc2Cl)CCCCC1=O` (stereo not shown) [ketamine]?
A: mTOR phosphorylation (Serine 2448) (mTORC1 signaling pathway): Neither ketamine nor the Compound of Formula A results in a change; increase in phosphorylation of AKT at thr308 (mTORC1 signaling pathway): ~50%; p70s6K phosphorylation (Threonine 389) (mTORC1 signaling pathway): transiently increase; ratings on the Hamilton Depression Rating Scale (HDRS) compared to placebo [4]: significantly improved ratings
